Measured values reported in PubChem BioAssay (NCI).
Where “and” joins values, the source holds several entries; their conditions need not be identical. Equal values may be shown once.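 Values below derive from 48-hour exposures of cells grown in 96-well plates, with endpoints linearly interpolated between the two concentrations bracketing the appropriate inhibition level. GI50: concentration for 50% inhibition of growth. TGI marks complete inhibition of growth.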

Tests used:
Assay in all cases: NCI anticancer screen, dose series, 48 h
COLO 205 colon = tested on: COLO 205 colon
HCT-15 colon = tested on: HCT-15 colon
KM12 colon = tested on: KM12 colon
MDA-MB-231 breast = tested on: MDA-MB-231 breast
MOLT-4 leukemia = tested on: MOLT-4 leukemia
NCI-H460 lung = tested on: NCI-H460 lung
NCI/ADR-RES ovarian = tested on: NCI/ADR-RES ovarian
OVCAR-5 ovarian = tested on: OVCAR-5 ovarian
RXF 393 renal = tested on: RXF 393 renal
SK-MEL-5 melanoma = tested on: SK-MEL-5 melanoma

O=C1CC/C(=C\COc2ccc3ccc(=O)oc3c2)O1
GI50 (COLO 205 colon): 3.21 µM
TGI (COLO 205 colon): 17.5 µM
GI50 (HCT-15 colon): 3.84 µM
TGI (HCT-15 colon): 17.1 µM
GI50 (KM12 colon): 10.1 µM
TGI (KM12 colon): 45.2 µM
GI50 (MDA-MB-231 breast): 13.8 µM
TGI (MDA-MB-231 breast): 29.4 µM
GI50 (MOLT-4 leukemia): 6.41 µM
TGI (MOLT-4 leukemia): > 100 µM
GI50 (NCI-H460 lung): 16.8 µM
TGI (NCI-H460 lung): > 100 µM
GI50 (NCI/ADR-RES ovarian): 14.9 µM
TGI (NCI/ADR-RES ovarian): 43 µM
GI50 (OVCAR-5 ovarian): 17.3 µM
TGI (OVCAR-5 ovarian): 34.8 µM
GI50 (RXF 393 renal): 8.41 µM
TGI (RXF 393 renal): 31.9 µM
GI50 (SK-MEL-5 melanoma): 14.5 µM
TGI (SK-MEL-5 melanoma): 32.7 µM

CCC(=O)c1ccc2c(c1)N(CCCN1CCN(CCO)CC1)c1ccccc1S2
GI50 (COLO 205 colon): 12.1 µM
TGI (COLO 205 colon): 26.5 µM
GI50 (HCT-15 colon): 9.88 µM
TGI (HCT-15 colon): 28.3 µM
GI50 (KM12 colon): 14.9 µM
TGI (KM12 colon): 28.7 µM
GI50 (MDA-MB-231 breast): 13.1 µM
TGI (MDA-MB-231 breast): 27.4 µM
GI50 (MOLT-4 leukemia): 11 µM
TGI (MOLT-4 leukemia): 26.8 µM
GI50 (NCI-H460 lung): 17.6 µM
TGI (NCI-H460 lung): 33.5 µM
GI50 (NCI/ADR-RES ovarian): 14.7 µM
TGI (NCI/ADR-RES ovarian): 29.4 µM
GI50 (OVCAR-5 ovarian): 15.7 µM
TGI (OVCAR-5 ovarian): 31.9 µM
GI50 (RXF 393 renal): 12.2 µM
TGI (RXF 393 renal): 26.2 µM
GI50 (SK-MEL-5 melanoma): 8.65 µM
TGI (SK-MEL-5 melanoma): 21.1 µM

COc1ccc(-c2cc(-c3nnc(SCC(=O)Nc4ccc(C(C)=O)cc4)o3)c3ccccc3n2)cc1
GI50 (COLO 205 colon): > 100 µM
TGI (COLO 205 colon): > 100 µM
GI50 (HCT-15 colon): > 100 µM
TGI (HCT-15 colon): > 100 µM
GI50 (KM12 colon): > 100 µM
TGI (KM12 colon): > 100 µM
GI50 (MDA-MB-231 breast): 19.4 µM
TGI (MDA-MB-231 breast): > 100 µM
GI50 (MOLT-4 leukemia): > 100 µM
TGI (MOLT-4 leukemia): > 100 µM
GI50 (NCI-H460 lung): > 100 µM
TGI (NCI-H460 lung): > 100 µM
GI50 (NCI/ADR-RES ovarian): > 100 µM
TGI (NCI/ADR-RES ovarian): > 100 µM
GI50 (OVCAR-5 ovarian): > 100 µM
TGI (OVCAR-5 ovarian): > 100 µM
GI50 (RXF 393 renal): 18.1 µM
TGI (RXF 393 renal): 57.5 µM
GI50 (SK-MEL-5 melanoma): > 100 µM
TGI (SK-MEL-5 melanoma): > 100 µM

Cc1ccccc1C(C(=O)NC1CCCCC1)N(C(=O)Cn1ccnc1C)c1cccc(F)c1 (stereo not given)
GI50 (COLO 205 colon): > 92.1 µM
TGI (COLO 205 colon): > 100 µM
GI50 (HCT-15 colon): > 100 µM
TGI (HCT-15 colon): > 100 µM
GI50 (KM12 colon): > 100 µM
TGI (KM12 colon): > 100 µM
GI50 (MDA-MB-231 breast): 35.8 µM
TGI (MDA-MB-231 breast): > 100 µM
GI50 (MOLT-4 leukemia): > 100 µM
TGI (MOLT-4 leukemia): > 100 µM
GI50 (NCI-H460 lung): > 100 µM
TGI (NCI-H460 lung): > 100 µM
GI50 (NCI/ADR-RES ovarian): > 100 µM
TGI (NCI/ADR-RES ovarian): > 100 µM
GI50 (OVCAR-5 ovarian): > 100 µM
TGI (OVCAR-5 ovarian): > 100 µM
GI50 (RXF 393 renal): 7.5 µM
TGI (RXF 393 renal): 40.5 µM
GI50 (SK-MEL-5 melanoma): > 100 µM
TGI (SK-MEL-5 melanoma): > 100 µM

Cc1cc(NC(=O)NC(=O)c2ccccc2NC(=O)CN)ccc1Oc1ncc(Br)cn1
TGI (COLO 205 colon): 2.24 µM
TGI (HCT-15 colon): 42.2 µM
GI50 (KM12 colon): 0.146 µM
TGI (KM12 colon): 34.5 µM and > 100 µM
TGI (MDA-MB-231 breast): 5.17 µM and 14 µM
GI50 (MOLT-4 leukemia): 0.0807 µM
TGI (MOLT-4 leukemia): 75 µM and > 100 µM
GI50 (NCI-H460 lung): 0.405 µM
TGI (NCI-H460 lung): 44.5 µM and 11.8 µM
TGI (NCI/ADR-RES ovarian): 12.7 µM
GI50 (OVCAR-5 ovarian): 0.541 µM
TGI (OVCAR-5 ovarian): 43.6 µM and 75.2 µM
GI50 (RXF 393 renal): < 0.01 µM
GI50 (SK-MEL-5 melanoma): 0.2 µM and 0.0445 µM
TGI (SK-MEL-5 melanoma): 43.9 µM and 26.8 µM

CC1(C)Cc2c(Br)c(Br)c(Br)c(OCC(O)CN3CCOCC3)c2O1 (stereo not given)
GI50 (COLO 205 colon): 13.4 µM
TGI (COLO 205 colon): 27 µM
GI50 (HCT-15 colon): 13.7 µM
TGI (HCT-15 colon): 26.8 µM
GI50 (KM12 colon): 13.4 µM
TGI (KM12 colon): 28.9 µM
GI50 (MDA-MB-231 breast): 10.1 µM
TGI (MDA-MB-231 breast): 22.5 µM
GI50 (MOLT-4 leukemia): 3.15 µM
TGI (MOLT-4 leukemia): 14.1 µM
GI50 (NCI-H460 lung): 9.29 µM
TGI (NCI-H460 lung): 25.8 µM
GI50 (NCI/ADR-RES ovarian): 16.1 µM
TGI (NCI/ADR-RES ovarian): 34.7 µM
GI50 (OVCAR-5 ovarian): 14.8 µM
TGI (OVCAR-5 ovarian): 28.8 µM
GI50 (RXF 393 renal): 3.69 µM
TGI (RXF 393 renal): 13 µM
GI50 (SK-MEL-5 melanoma): 10.2 µM
TGI (SK-MEL-5 melanoma): 22 µM

COC(=O)[C@@H]1CCCN1C(=O)[C@H]1CCCN1C(=O)[C@@H](Cc1c[nH]c2ccccc12)NC(=S)Nc1cc(C(F)(F)F)cc(C(F)(F)F)c1
GI50 (COLO 205 colon): 2.06 µM
TGI (COLO 205 colon): 3.97 µM
GI50 (HCT-15 colon): 3.35 µM
TGI (HCT-15 colon): 12.8 µM
GI50 (KM12 colon): 2.84 µM
TGI (KM12 colon): 8.01 µM
GI50 (MDA-MB-231 breast): 2.34 µM
TGI (MDA-MB-231 breast): 5.6 µM
GI50 (MOLT-4 leukemia): 2.88 µM
TGI (MOLT-4 leukemia): 7.98 µM
GI50 (NCI-H460 lung): 2.01 µM
TGI (NCI-H460 lung): 4.26 µM
GI50 (NCI/ADR-RES ovarian): 3.96 µM
TGI (NCI/ADR-RES ovarian): 21.4 µM
GI50 (OVCAR-5 ovarian): 4.3 µM
TGI (OVCAR-5 ovarian): 18.4 µM
GI50 (RXF 393 renal): 2.18 µM
TGI (RXF 393 renal): 7.08 µM
GI50 (SK-MEL-5 melanoma): 2.45 µM
TGI (SK-MEL-5 melanoma): 7.11 µM

O=C1C=CC(=O)c2c1ncc1c2nc2sccn21
GI50 (COLO 205 colon): 40.3 µM
TGI (COLO 205 colon): > 100 µM
GI50 (HCT-15 colon): 17.9 µM
TGI (HCT-15 colon): 39.5 µM
GI50 (KM12 colon): > 100 µM
TGI (KM12 colon): > 100 µM
GI50 (MDA-MB-231 breast): 14.6 µM
TGI (MDA-MB-231 breast): 39 µM
GI50 (MOLT-4 leukemia): 3.57 µM
TGI (MOLT-4 leukemia): > 100 µM
GI50 (NCI-H460 lung): 27.2 µM
TGI (NCI-H460 lung): > 100 µM
GI50 (NCI/ADR-RES ovarian): 29.3 µM
TGI (NCI/ADR-RES ovarian): > 100 µM
GI50 (OVCAR-5 ovarian): 19.8 µM
TGI (OVCAR-5 ovarian): 40.1 µM
GI50 (RXF 393 renal): 20.8 µM
TGI (RXF 393 renal): 64.8 µM
GI50 (SK-MEL-5 melanoma): 16.9 µM
TGI (SK-MEL-5 melanoma): 37.3 µM

COc1ccc(-c2ccccc2)cc1-c1c(Nc2cc(Cl)cc(Cl)c2O)c(=O)c1=O
GI50 (COLO 205 colon): 1.9 µM
TGI (COLO 205 colon): 44.8 µM
GI50 (HCT-15 colon): 1.5 µM
TGI (HCT-15 colon): > 50 µM
GI50 (KM12 colon): 1.53 µM
TGI (KM12 colon): > 50 µM
GI50 (MDA-MB-231 breast): 1.2 µM
TGI (MDA-MB-231 breast): 3.17 µM
GI50 (MOLT-4 leukemia): 1.78 µM
TGI (MOLT-4 leukemia): > 50 µM
GI50 (NCI-H460 lung): 1.55 µM
TGI (NCI-H460 lung): > 50 µM
GI50 (NCI/ADR-RES ovarian): 1.38 µM
TGI (NCI/ADR-RES ovarian): > 50 µM
GI50 (OVCAR-5 ovarian): 1.77 µM
TGI (OVCAR-5 ovarian): > 50 µM
GI50 (RXF 393 renal): 1.48 µM
TGI (RXF 393 renal): > 50 µM
GI50 (SK-MEL-5 melanoma): 0.97 µM
TGI (SK-MEL-5 melanoma): 2.25 µM

O=C(/C=C\c1ccc2ccccc2n1)c1cc(Cl)ccc1O
GI50 (COLO 205 colon): 5.74 µM
TGI (COLO 205 colon): 18.4 µM
GI50 (HCT-15 colon): 2.43 µM
TGI (HCT-15 colon): 8.86 µM
GI50 (KM12 colon): 8.71 µM
TGI (KM12 colon): 24.5 µM
GI50 (MDA-MB-231 breast): 5.18 µM
TGI (MDA-MB-231 breast): 24.3 µM
GI50 (MOLT-4 leukemia): 3.12 µM
TGI (MOLT-4 leukemia): 24.1 µM
GI50 (NCI-H460 lung): 16 µM
TGI (NCI-H460 lung): 42.6 µM
GI50 (NCI/ADR-RES ovarian): 2.6 µM
TGI (NCI/ADR-RES ovarian): 8.04 µM
GI50 (OVCAR-5 ovarian): 14.3 µM
TGI (OVCAR-5 ovarian): 30.5 µM
GI50 (RXF 393 renal): 2.3 µM
TGI (RXF 393 renal): 6.36 µM
GI50 (SK-MEL-5 melanoma): 13.4 µM
TGI (SK-MEL-5 melanoma): 37.5 µM

CC[C@@]1(O)C(=O)OCc2c1cc1n(c2=O)Cc2cc3c(NC(=O)CN)cccc3nc2-1
TGI (COLO 205 colon): > 51.3 µM
TGI (HCT-15 colon): > 100 µM
TGI (KM12 colon): 34.6 µM
TGI (MDA-MB-231 breast): > 73 µM
TGI (MOLT-4 leukemia): 0.161 µM
TGI (NCI-H460 lung): 2.94 µM
TGI (NCI/ADR-RES ovarian): > 100 µM
TGI (OVCAR-5 ovarian): 63.8 µM
TGI (RXF 393 renal): 0.354 µM
TGI (SK-MEL-5 melanoma): 2.32 µM

C=C(C)[C@@H]1CC[C@]2(C(=O)NCCNCCNCCN)CC[C@]3(C)[C@H](CC[C@@H]4[C@@]5(C)CCC(=O)C(C)(C)[C@@H]5CC[C@]43C)[C@@H]12
GI50 (COLO 205 colon): 8.74 µM
TGI (COLO 205 colon): 19 µM
GI50 (HCT-15 colon): 7.65 µM
TGI (HCT-15 colon): 15.7 µM
GI50 (KM12 colon): 8.47 µM
TGI (KM12 colon): 16.6 µM
GI50 (MDA-MB-231 breast): 8.04 µM
TGI (MDA-MB-231 breast): 15.8 µM
GI50 (MOLT-4 leukemia): 6.96 µM
TGI (MOLT-4 leukemia): 31.1 µM
GI50 (NCI-H460 lung): 9.4 µM
TGI (NCI-H460 lung): 18.1 µM
GI50 (NCI/ADR-RES ovarian): 8.41 µM
TGI (NCI/ADR-RES ovarian): 16.6 µM
GI50 (OVCAR-5 ovarian): 8.78 µM
TGI (OVCAR-5 ovarian): 18.4 µM
GI50 (RXF 393 renal): 5.6 µM
TGI (RXF 393 renal): 12.5 µM
GI50 (SK-MEL-5 melanoma): 6.99 µM
TGI (SK-MEL-5 melanoma): 13.5 µM
